Data: patent US12180139B2, “Method for preparing aminoalkanoic acid derivative containing biphenyl group” (AMTIXBIO CO., LTD., priority 2019, dated 2024)

Key:
A. fumigatus = conditions: visual reading; expressed as a range value
Method: (§3) An in vitro antifungal susceptibility test was performed in accordance with the US Clinical and Laboratory Standards Institute (CLSI) guidelines to measure the degree of antifungal activity of the compounds synthesized in the Preparation Examples against opportunistic pathogenic fungi. […] The MIC value (μg/ ? ) is expressed as a range value. Specifically, Candida species and Cryptococcus neoformans were incubated in a Sabouraud dextrose agar (SDA) (Sigma-Aldrich) solid medium for 24 and 48 hours, respectively to obtain single colonies. The obtained single colonies were suspended in 0.85% physiological saline to prepare fungal cell suspension (1 to 5×10^6 cells/ ? ). Fungal cells 2000-fold diluted in RPMI1640 broth (Sigma-Aldrich) were seeded on 96-well plates (5×10^2 to 2.5×10^3 cells/ ? , 195 ? /well). Serial two-fold dilutions (128, 64, 32, 16, 8, 4, 2, 1, and 0.5 μg/ ? ) of compounds were prepared by diluting the compounds synthesized according to the above preparation examples. Then, 5 ? from each dilution was added to the well of the 96-well plate containing fungal cell suspension to give a final suspension of 200 ? per well. […] As a positive control, amphotericin B (AMB), which is highly toxic to the human body but is known as a representative antifungal agent, was used.

C. neoformans = conditions: RPMI1640 broth, 35° C., 72 hours, visual reading; expressed as a range value
Method: as §3

C. albicans = conditions: RPMI1640 broth, 35° C., 48 hours, visual reading; expressed as a range value
interleukin 6 (IL-6) = conditions: RAW264.7 cells, compound 8 μg/mL 1 hour, then LPS 1 μg/mL 24 hours; relative to LPS without compound
Method: The anti-inflammatory effects of the compounds of the present invention were evaluated using RAW264.7 cells which were stimulated to secrete interleukin 6 (IL-6). Specifically, RAW264.7 cells (obtained from Korean Cell Line Bank), mouse macrophages, were inoculated into a 12-well plate at 5×10^5 cells/well and incubated at 37° C. for 16 to 24 hours. The compounds of the present invention were added to the cell culture medium containing RAW264.7 cells incubated as above at a final concentration of 0 or 8 μg/ ? , and then incubated at 37° C. for 1 hour. Next, lipopolysaccharide (LPS, Sigma-Aldrich, USA) was further added to the medium at a final concentration of 1 μg/ ? , and the medium was incubated at 37° C. for 24 hours to induce IL-6 expression. Thereafter, IL-6 levels produced by the RAW264.7 cells were measured using an ELISA kit (Komabiotech Inc. Korea) according to the manufacturer's instructions. In Table 9, IL6 levels were expressed as a relative percentage (%) between LPS-induced IL6 levels after the treatment with the compound of the present invention and LPS-induced IL6 levels without the treatment of the compound of the present invention.

C. glabrata = conditions: RPMI1640 broth, 35° C., 48 hours, visual reading; expressed as a range value
Method: as §3

S. epidermidis (+) = conditions: MHB liquid medium, 37° C., 24 hours
Method: (§1) The antibacterial activities against Gram-positive bacteria, Gram-negative bacteria or multi-drug resistant bacteria were evaluated for the compounds of the present invention. The MIC test was conducted in accordance CLSI guidelines. E. coli(−), P. aeruginosa(−), and S. enterica(−) were used as Gram-negative bacteria, B. cereus(+), B. subtilis(+), B. coagulans(+), L. monocytogenes(+), M. luteus(+), P. acnes(+), S. epidermidis(+), and S. aureus(+) were used as Gram-positive bacteria. Methicillin-resistant Staphylococcus aureus (MRSA) was used as multi-drug resistant bacteria. The bacterial cells were incubated until the OD600 of the single colonies reached 0.1. […] Subsequently, bacterial cells were incubated at 37° C. for 24 hours, and then the MICs (μg/ ? ) were determined by visual reading and optical density detection at 600 nm (OD600). As a positive control, Nofloxacin and Vancomycin were used.

S. aureus (+) = conditions: MHB liquid medium, 37° C., 24 hours
Method: as §1

MRSA = assay: Antibacterial MIC test (CLSI); assay type: cell-based, Methicillin-resistant Staphylococcus aureus; conditions: MHB liquid medium, 37° C., 24 hours
Method: (§2) The MIC test was conducted in accordance CLSI guidelines. […] As a positive control, Nofloxacin and Vancomycin were used.

B. cereus (+) = assay: Antibacterial MIC test (CLSI); assay type: cell-based; conditions: MHB liquid medium, 37° C., 24 hours
Method: as §2

B. subtilis (+) = assay: Antibacterial MIC test (CLSI); assay type: cell-based; conditions: MHB liquid medium, 37° C., 24 hours
Method: as §2

E. coli (−) = assay: Antibacterial MIC test (CLSI); assay type: cell-based; conditions: MHB liquid medium, 37° C., 24 hours
Method: as §2

M. luteus (+) = assay: Antibacterial MIC test (CLSI); assay type: cell-based; conditions: MHB liquid medium, 37° C., 24 hours
Method: as §2

L. monocytogenes (+) = assay: Antibacterial MIC test (CLSI); assay type: cell-based; conditions: MHB liquid medium, 37° C., 24 hours
Method: as §2

S. aureus enterica (−) = assay: Antibacterial MIC test (CLSI); assay type: cell-based; conditions: MHB liquid medium, 37° C., 24 hours
Method: as §2

P. acnes (+) = assay: Antibacterial MIC test (CLSI); assay type: cell-based; conditions: MHB liquid medium, 37° C., 24 hours
Method: as §2

B. coagulans (+) = assay: Antibacterial MIC test (CLSI); assay type: cell-based; conditions: MHB liquid medium, 37° C., 24 hours
Method: as §2

CCCC(N)C(=O)Nc1ccc(-c2ccc(OC(F)(F)F)cc2)cc1.Cl (racemic) [Compound 32, (R)/(S)-2-amino-N-(4′-(trifluoromethoxy)-[1,1′-biphenyl]-4-yl)pentanamide hydrochloride]
MIC (μg/mL) A. fumigatus (A. fumigatus): 4~16 μg/mL
MIC (μg/mL) C. neoformans (C. neoformans): 2~8 μg/mL
MIC (μg/mL) C. albicans (C. albicans): 4~16 μg/mL
Relative IL-6 levels (%) (interleukin 6 (IL-6)): 16%
MIC (μg/mL) C. glabrata (C. glabrata): 4~16 μg/mL

CCCC(C(=O)Nc1ccc(-c2ccc(Cl)c(Cl)c2)cc1)N(C)C (racemic) [Compound 36, (R)/(S)-N-(3′,4′-dichloro-[1,1′-biphenyl]-4-yl)-2-(dimethylamino)pentanamide]
MIC (μg/mL) A. fumigatus (A. fumigatus): 4~16 μg/mL
MIC (μg/mL) C. neoformans (C. neoformans): 2~8 μg/mL
MIC (μg/mL) C. albicans (C. albicans): 4~16 μg/mL
Relative IL-6 levels (%) (interleukin 6 (IL-6)): 9%
MIC (μg/mL) C. glabrata (C. glabrata): 4~16 μg/mL

CCCC(N)C(=O)NCc1ccc(-c2ccc(Cl)c(Cl)c2)cc1.Cl (racemic) [Compound 45, (R)/(S)-2-amino-N-((3′,4′-dichloro-[1,1′-biphenyl]-4-yl)methyl)pentanamide hydrochloride]
MIC (μg/mL) A. fumigatus (A. fumigatus): 8~32 μg/mL
MIC (μg/mL) C. neoformans (C. neoformans): 2~8 μg/mL
MIC (μg/mL) C. albicans (C. albicans): 8~32 μg/mL
Relative IL-6 levels (%) (interleukin 6 (IL-6)): 3%
MIC (μg/mL) C. glabrata (C. glabrata): 8~32 μg/mL

CCCC(N)C(=O)NCc1ccc(-c2ccc(C(F)(F)F)cc2)cc1.Cl (racemic) [Compound 47, (R)/(S)-2-amino-N-((4′-(trifluoromethyl)-[1,1′-biphenyl]-4-yl)methyl)pentanamide hydrochloride]
MIC (μg/mL) A. fumigatus (A. fumigatus): 8~32 μg/mL
MIC (μg/mL) C. neoformans (C. neoformans): 4~16 μg/mL
MIC (μg/mL) C. albicans (C. albicans): 8~32 μg/mL
Relative IL-6 levels (%) (interleukin 6 (IL-6)): 12%
MIC (μg/mL) C. glabrata (C. glabrata): 8~32 μg/mL

CCCCC(N)C(=O)NCc1ccc(-c2ccc(C(F)(F)F)cc2)cc1.Cl (racemic) [Compound 48, (R)/(S)-2-amino-N-((4′-(trifluoromethyl)-[1,1′-biphenyl]-4-yl)methyl)hexanamide hydrochloride]
MIC (μg/mL) A. fumigatus (A. fumigatus): 4~16 μg/mL
MIC (μg/mL) C. neoformans (C. neoformans): 4~16 μg/mL
MIC (μg/mL) C. albicans (C. albicans): 4~16 μg/mL
Relative IL-6 levels (%) (interleukin 6 (IL-6)): 67%
MIC (μg/mL) C. glabrata (C. glabrata): 4~16 μg/mL

CCCC(N)C(=O)NCc1ccc(-c2ccc(OC(F)(F)F)cc2)cc1.Cl (racemic) [Compound 49, (R)/(S)-2-amino-N-((4′-(trifluoromethoxy)-[1,1′-biphenyl]-4-yl)methyl)pentanamide hydrochloride]
MIC (μg/mL) A. fumigatus (A. fumigatus): 8~32 μg/mL
MIC (μg/mL) C. neoformans (C. neoformans): 4~16 μg/mL
MIC (μg/mL) C. albicans (C. albicans): 8~32 μg/mL
Relative IL-6 levels (%) (interleukin 6 (IL-6)): 50%
MIC (μg/mL) C. glabrata (C. glabrata): 8~32 μg/mL

CCCCC(N)C(=O)NCc1ccc(-c2ccc(OC(F)(F)F)cc2)cc1.Cl (racemic) [Compound 50, (R)/(S)-2-amino-N-((4′-(trifluoromethoxy)-[1,1′-biphenyl]-4-yl)methyl)hexanamide hydrochloride]
MIC (μg/mL) A. fumigatus (A. fumigatus): 4~16 μg/mL
MIC (μg/mL) C. neoformans (C. neoformans): 4~16 μg/mL
MIC (μg/mL) C. albicans (C. albicans): 4~16 μg/mL
Relative IL-6 levels (%) (interleukin 6 (IL-6)): 68%
MIC (μg/mL) C. glabrata (C. glabrata): 4~16 μg/mL

CCCC(NC)C(=O)NCc1ccc(-c2ccc(C(F)(F)F)cc2)cc1.Cl (racemic) [Compound 52, (R)/(S)-2-(methylamino)-N-((4′-(trifluoromethyl)-[1,1′-biphenyl]-4-yl)methyl)pentanamide hydrochloride]
MIC (μg/mL) A. fumigatus (A. fumigatus): 8~32 μg/mL
MIC (μg/mL) C. neoformans (C. neoformans): 4~16 μg/mL
MIC (μg/mL) C. albicans (C. albicans): 8~32 μg/mL
Relative IL-6 levels (%) (interleukin 6 (IL-6)): 13%
MIC (μg/mL) C. glabrata (C. glabrata): 8~32 μg/mL

CCCC(C(=O)NCc1ccc(-c2ccc(Cl)c(Cl)c2)cc1)N(C)C (racemic) [Compound 53, (R)/(S)-N-((3′,4′-dichloro-[1,1′-biphenyl]-4-yl)methyl)-2-(dimethylamino)pentanamide]
MIC (μg/mL) A. fumigatus (A. fumigatus): 8~32 μg/mL
MIC (μg/mL) C. neoformans (C. neoformans): 2~8 μg/mL
MIC (μg/mL) C. albicans (C. albicans): 8~32 μg/mL
Relative IL-6 levels (%) (interleukin 6 (IL-6)): 5%
MIC (μg/mL) C. glabrata (C. glabrata): 8~32 μg/mL

CCCC(N)C(=O)NCCc1ccc(-c2ccc(C(F)(F)F)cc2)cc1.Cl (racemic) [Compound 77, (R)/(S)-2-amino-N-(2-(4′-(trifluoromethyl)-[1,1′-biphenyl]-4-yl)ethyl)pentanamide hydrochloride]
MIC (μg/mL) A. fumigatus (A. fumigatus): 8~32 μg/mL
MIC (μg/mL) C. neoformans (C. neoformans): 4~16 μg/mL
MIC (μg/mL) C. albicans (C. albicans): 8~32 μg/mL
Relative IL-6 levels (%) (interleukin 6 (IL-6)): 5%
MIC (μg/mL) C. glabrata (C. glabrata): 8~32 μg/mL

CCCC(N)C(=O)NCCc1ccc(-c2ccc(OC(F)(F)F)cc2)cc1.Cl (racemic) [Compound 80, (R)/(S)-2-amino-N-(2-(4′-(trifluoromethoxy)-[1,1′-biphenyl]-4-yl)ethyl)pentanamide hydrochloride]
MIC (μg/mL) A. fumigatus (A. fumigatus): 4~16 μg/mL
MIC (μg/mL) C. neoformans (C. neoformans): 2~8 μg/mL
MIC (μg/mL) C. albicans (C. albicans): 4~16 μg/mL
Relative IL-6 levels (%) (interleukin 6 (IL-6)): 6%
MIC (μg/mL) C. glabrata (C. glabrata): 4~16 μg/mL

CCCCC(NC)C(=O)NCCc1ccc(-c2ccc(C(F)(F)F)cc2)cc1.Cl (racemic) [Compound 88, (R)/(S)-2-(methylamino)-N-(2-(4′-(trifluoromethyl)-[1,1′-biphenyl]-4-yl)ethyl)hexanamide hydrochloride]
MIC S. epidermidis (+) (S. epidermidis (+)): 8 µg/mL
MIC S. aureus (+) (S. aureus (+)): 8 µg/mL
MIC (μg/mL) A. fumigatus (A. fumigatus): 4~16 μg/mL
MIC MRSA (MRSA): 8 µg/mL
MIC (μg/mL) C. neoformans (C. neoformans): 2~8 μg/mL
MIC B. cereus (+) (B. cereus (+)): >64 µg/mL
MIC B. subtilis (+) (B. subtilis (+)): 32 µg/mL
MIC E. coli (−) (E. coli (−)): 8 µg/mL
MIC M. luteus (+) (M. luteus (+)): >64 µg/mL
MIC L. monocytogenes (+) (L. monocytogenes (+)): <4 µg/mL
MIC S. aureus enterica (−) (S. aureus enterica (−)): >64 µg/mL
MIC P. acnes (+) (P. acnes (+)): <4 µg/mL
MIC B. coagulans (+) (B. coagulans (+)): <4 µg/mL
MIC (μg/mL) C. albicans (C. albicans): 4~16 μg/mL
MIC (μg/mL) C. glabrata (C. glabrata): 4~16 μg/mL

CCC(NC)C(=O)NCCc1ccc(-c2ccc(OC(F)(F)F)cc2)cc1.Cl (racemic) [Compound 89, (R)/(S)-2-(methylamino)-N-(2-(4′-(trifluoromethoxy)-[1,1′-biphenyl]-4-yl)ethyl)butanamide hydrochloride]
MIC S. epidermidis (+) (S. epidermidis (+)): 16 µg/mL
MIC S. aureus (+) (S. aureus (+)): 32 µg/mL
MIC (μg/mL) A. fumigatus (A. fumigatus): 8~32 μg/mL
MIC MRSA (MRSA): 32 µg/mL
MIC (μg/mL) C. neoformans (C. neoformans): 8~32 μg/mL
MIC B. cereus (+) (B. cereus (+)): >64 µg/mL
MIC B. subtilis (+) (B. subtilis (+)): 16 µg/mL
MIC E. coli (−) (E. coli (−)): 16 µg/mL
MIC M. luteus (+) (M. luteus (+)): 16 µg/mL
MIC L. monocytogenes (+) (L. monocytogenes (+)): 16 µg/mL
MIC S. aureus enterica (−) (S. aureus enterica (−)): 32 µg/mL
MIC P. acnes (+) (P. acnes (+)): 16 µg/mL
MIC B. coagulans (+) (B. coagulans (+)): <4 µg/mL
MIC (μg/mL) C. albicans (C. albicans): 8~32 μg/mL
MIC (μg/mL) C. glabrata (C. glabrata): 8~32 μg/mL

CCCCC(NC)C(=O)NCCc1ccc(-c2ccc(OC(F)(F)F)cc2)cc1.Cl (racemic) [Compound 91, (R)/(S)-2-(methylamino)-N-(2-(4′-(trifluoromethoxy)-[1,1′-biphenyl]-4-yl)ethyl)hexanamide hydrochloride]
MIC S. epidermidis (+) (S. epidermidis (+)): <4 µg/mL
MIC S. aureus (+) (S. aureus (+)): 8 µg/mL
MIC (μg/mL) A. fumigatus (A. fumigatus): 4~16 μg/mL
MIC MRSA (MRSA): 8 µg/mL
MIC (μg/mL) C. neoformans (C. neoformans): 2~8 μg/mL
MIC B. cereus (+) (B. cereus (+)): 16 µg/mL
MIC B. subtilis (+) (B. subtilis (+)): 16 µg/mL
MIC E. coli (−) (E. coli (−)): 8 µg/mL
MIC M. luteus (+) (M. luteus (+)): <4 µg/mL
MIC L. monocytogenes (+) (L. monocytogenes (+)): <4 µg/mL
MIC S. aureus enterica (−) (S. aureus enterica (−)): 16 µg/mL
MIC P. acnes (+) (P. acnes (+)): <4 µg/mL
MIC B. coagulans (+) (B. coagulans (+)): <4 µg/mL
MIC (μg/mL) C. albicans (C. albicans): 4~16 μg/mL
MIC (μg/mL) C. glabrata (C. glabrata): 4~16 μg/mL
